Source: DBAASP
In brackets after ≈: the same amount, converted by molar mass.

Legend:
Assay in all cases: ≥ marks a high value that may be exact or a test limit, other limits are often not marked, values filed in µg/mL are converted to µM
Bacillus subtilis 168 = test system: Bacillus subtilis 168
Staphylococcus aureus = test system: Staphylococcus aureus
Escherichia coli B = test system: Escherichia coli B
Pseudomonas aeruginosa = test system: Pseudomonas aeruginosa
[1] = test system: Candida albicans F7-39/IDE99
Pseudomonas putida = test system: Pseudomonas putida
[2] = test system: Enterobacter cloacae AB2010162
[3] = test system: Staphylococcus aureus ATCC 25923
[4] = test system: Acinetobacter baumannii ATCC 19606
[5] = test system: Pseudomonas aeruginosa ATCC BAA-427
[6] = test system: Escherichia coli ATCC 25922
[7] = test system: Staphylococcus aureus ATCC 33591
[8] = test system: Escherichia coli DH5alpha
[9] = test system: Micrococcus luteus AB2010179
[10] = test system: Klebsiella pneumoniae ATCC 27736
[11] = test system: Staphylococcus aureus AB94004
[12] = test system: Salmonella enterica AB2010185
[13] = test system: Bacillus magaterium AB90008
Pseudomonas fluorescens = test system: Pseudomonas fluorescens
[14] = test system: Bacillus subtilis ATCC 6633
[15] = test system: Salmonella enterica subsp. enterica serovar Typhimurium ATCC 14028
[16] = test system: Proteus mirabilis ATCC 25933
[17] = test system: Streptococcus pyogenes ATCC 19615
[18] = test system: Escherichia coli ATCC 8739
[19] = test system: Pseudomonas aeruginosa ATCC 15442
[20] = test system: Staphylococcus aureus ATCC 29213
[21] = test system: Klebsiella pneumoniae ATCC 13885
[22] = test system: Enterococcus faecalis ATCC 12953
Staphylococcus aureus 75 = test system: Staphylococcus aureus 75
[23] = test system: Bacillus subtilis ATCC 23857
[24] = test system: Acinetobacter baumannii 9931
[25] = test system: Staphylococcus epidermidis ATCC 12228
Escherichia coli 780 = test system: Escherichia coli 780
Escherichia coli 804 = test system: Escherichia coli 804
[26] = test system: Pseudomonas aeruginosa ATCC 27853
[27] = test system: Klebsiella pneumoniae ATCC 700603
[28] = test system: Pseudomonas aeruginosa ATCC 9027
[29] = test system: Pseudomonas aeruginosa 50
[30] = test system: Pseudomonas aeruginosa 73
[31] = test system: Acinetobacter baumannii 97830
[32] = test system: Staphylococcus aureus 113
[33] = test system: Bacillus subtilis ATCC 9372
[34] = test system: Streptococcus pneumoniae ATCC 49619
[35] = test system: Salmonella typhimurium ATCC 50013
[36] = test system: Shigella dysenteriae ATCC 51302

| SMILES | MIC [4] [µM] | MIC [20] [µM] | MIC (Staphylococcus aureus 75) [µM] | MIC [23] [µM] | MIC [24] [µM] | MIC [25] [µM] | MIC (Escherichia coli 780) [µM] | MIC (Escherichia coli 804) [µM] | MIC [26] [µM] | MIC [27] [µM] | MIC [28] [µM] | MIC [29] [µM] | MIC [30] [µM] | MIC [31] [µM] | MIC [32] [µM] | further results |
| --- | --- | --- | --- | --- | --- | --- | --- | --- | --- | --- | --- | --- | --- | --- | --- | --- |
| CC[C@H](C)[C@H](NC(=O)[C@H](Cc1cnc[nH]1)NC(=O)[C@H](CCCCN)NC(=O)[C@H](CC(C)C)NC(=O)[C@H](Cc1ccccc1)NC(=O)[C@H](CO)NC(=O)[C@H](CCSC)NC(=O)[C@H](Cc1c[nH]c2ccccc12)NC(=O)[C@H](CCCCN)NC(=O)CN)C(=O)N[C@@H](CC(C)C)C(=O)N[C@@H](CCCCN)C(N)=O [GKWMSFLKHILK] | – | – | – | – | – | – | – | – | – | – | – | – | – | – | – | MIC (Bacillus subtilis 168): 1.1 µM (≈ 1.64 µg/mL); MIC (Staphylococcus aureus): 6.4 µM (≈ 9.52 µg/mL); MIC (Escherichia coli B): 4 µM (≈ 5.95 µg/mL); MIC (Pseudomonas aeruginosa): 21.8 µM (≈ 32.4 µg/mL); MIC [1]: 6.8 µM (≈ 10.1 µg/mL) |
| NCCCC[C@H](NC(=O)[C@@H](N)CCCCN)C(=O)N[C@@H](Cc1ccccc1)C(=O)N[C@@H](Cc1c[nH]c2ccccc12)C(=O)N[C@@H](CCC(=O)O)C(=O)N[C@@H](CC(=O)O)C(=O)N[C@@H](CC(=O)O)C(=O)NCC(N)=O [KKFWEDDG] | – | 250 (≈ 256 µg/mL) | – | – | – | – | – | – | – | – | – | – | – | – | – | MIC [14]: ≥ 250 µM; MIC [15]: 125 µM (≈ 128 µg/mL); MIC [16]: ≥ 125 µM; MIC [17]: ≥ 125 µM; MIC [18]: ≥ 250 µM; MIC [19]: ≥ 250 µM; MIC [21]: ≥ 125 µM; MIC [22]: ≥ 125 µM |
| C[C@H](N)C(=O)N[C@@H](Cc1c[nH]c2ccccc12)C(=O)N[C@@H](CCCN=C(N)N)C(=O)N[C@@H](Cc1c[nH]c2ccccc12)C(=O)N[C@@H](Cc1c[nH]c2ccccc12)C(=O)N[C@@H](Cc1c[nH]c2ccccc12)C(=O)N[C@@H](CCCN=C(N)N)C(=O)N[C@@H](Cc1c[nH]c2ccccc12)C(=O)N[C@@H](C)C(N)=O [AWRWWWRWA] | 32 (≈ 44.9 µg/mL) | 8 (≈ 11.2 µg/mL) | 4 (≈ 5.61 µg/mL) | 8 (≈ 11.2 µg/mL) | ≥ 32 | 8 (≈ 11.2 µg/mL) | 16 (≈ 22.4 µg/mL) | 8 (≈ 11.2 µg/mL) | 32 (≈ 44.9 µg/mL) | 8 (≈ 11.2 µg/mL) | 32 (≈ 44.9 µg/mL) | ≥ 32 | ≥ 32 | 8 (≈ 11.2 µg/mL) | 8 (≈ 11.2 µg/mL) | – |
| CC[C@H](C)[C@H](N)C(=O)N[C@@H](CCCN=C(N)N)C(=O)N[C@@H](Cc1c[nH]c2ccccc12)C(=O)N[C@@H](Cc1c[nH]c2ccccc12)C(=O)N[C@@H](Cc1c[nH]c2ccccc12)C(=O)N[C@@H](CCCN=C(N)N)C(=O)N[C@H](C(N)=O)[C@@H](C)CC [IRWWWRI] | 64 (≈ 71.3 µg/mL) | 4 (≈ 4.46 µg/mL) | 8 (≈ 8.91 µg/mL) | 8 (≈ 8.91 µg/mL) | ≥ 32 | 8 (≈ 8.91 µg/mL) | 16 (≈ 17.8 µg/mL) | 16 (≈ 17.8 µg/mL) | 16 (≈ 17.8 µg/mL) | 32 (≈ 35.7 µg/mL) | 32 (≈ 35.7 µg/mL) | ≥ 32 | ≥ 32 | ≥ 32 | 8 (≈ 8.91 µg/mL) | – |

Second part, led by results:

| MIC [4] [µM] | MIC [20] [µM] | MIC (Staphylococcus aureus 75) [µM] | MIC [23] [µM] | MIC [24] [µM] | MIC [25] [µM] | MIC (Escherichia coli 780) [µM] | MIC (Escherichia coli 804) [µM] | MIC [26] [µM] | MIC [27] [µM] | MIC [28] [µM] | MIC [29] [µM] | MIC [30] [µM] | MIC [31] [µM] | MIC [32] [µM] | SMILES | further results |
| --- | --- | --- | --- | --- | --- | --- | --- | --- | --- | --- | --- | --- | --- | --- | --- | --- |
| > 26.7 | – | – | – | – | – | – | – | – | – | – | – | – | – | – | CC[C@H](C)[C@H](N)C(=O)N[C@@H](CC(C)C)C(=O)NCC(=O)N[C@@H](CCC(=O)O)C(=O)N[C@H](C(=O)N[C@@H](Cc1c[nH]c2ccccc12)C(=O)N[C@@H](CCCCN)C(=O)NCC(=O)N[C@H](C(=O)N[C@@H](CCCCN)C(=O)N[C@@H](CC(=O)O)C(=O)N[C@H](C(=O)N[C@@H](CC(C)C)C(N)=O)[C@@H](C)CC)[C@@H](C)CC)[C@@H](C)CC [ILGEIWKGIKDIL] | MIC (Pseudomonas putida): ≥ 82 µM; MIC [2]: ≥ 82 µM; MIC [3]: ≥ 100 µM; MIC [5]: ≥ 100 µM; MIC [6]: ≥ 100 µM; MIC [7]: ≥ 100 µM; MIC [8]: ≥ 82 µM; MIC [9]: ≥ 82 µM; MIC [10]: ≥ 100 µM; MIC [11]: ≥ 82 µM; MIC [12]: ≥ 82 µM; MIC [13]: ≥ 41 µM; MIC (Pseudomonas fluorescens): ≥ 82 µM |
| – | – | – | – | – | – | – | – | 57.9 (≈ 64 µg/mL) | – | – | – | – | – | – | CC(C)C[C@H](NC(=O)CN)C(=O)N[C@@H](CO)C(=O)N[C@@H](CCCN=C(N)N)C(=O)N[C@@H](CC(C)C)C(=O)N[C@@H](Cc1ccccc1)C(=O)N[C@H](C(=O)N[C@@H](C)C(=O)N[C@@H](CC(C)C)C(=O)N[C@@H](CCCCN)C(=O)O)[C@@H](C)O [GLSRLFTALK] | MIC [33]: 14.5 µM (≈ 16 µg/mL); MIC [3]: 14.5 µM (≈ 16 µg/mL); MIC [34]: ≥ 57.9 µM; MIC [35]: 29 µM (≈ 32 µg/mL); MIC [6]: 29 µM (≈ 32 µg/mL); MIC [36]: ≥ 232 µM |
| 16 (≈ 23.9 µg/mL) | 4 (≈ 5.98 µg/mL) | 4 (≈ 5.98 µg/mL) | 2 (≈ 2.99 µg/mL) | 16 (≈ 23.9 µg/mL) | 8 (≈ 12 µg/mL) | 16 (≈ 23.9 µg/mL) | 16 (≈ 23.9 µg/mL) | 4 (≈ 5.98 µg/mL) | 16 (≈ 23.9 µg/mL) | 8 (≈ 12 µg/mL) | 4 (≈ 5.98 µg/mL) | 16 (≈ 23.9 µg/mL) | 8 (≈ 12 µg/mL) | 8 (≈ 12 µg/mL) | NC(=O)[C@H](Cc1ccccc1)NC(=O)[C@H](CCCN=C(N)N)NC(=O)[C@H](CCCN=C(N)N)NC(=O)[C@H](Cc1c[nH]c2ccccc12)NC(=O)[C@H](Cc1c[nH]c2ccccc12)NC(=O)[C@H](Cc1c[nH]c2ccccc12)NC(=O)[C@H](CCCN=C(N)N)NC(=O)[C@H](CCCN=C(N)N)NC(=O)[C@@H](N)Cc1ccccc1 [FRRWWWRRF] | – |
